Our source for the remaining target (mRNA or protein) (fraction of control) values is the OligoGym collection.

These antisense oligonucleotides have a phosphorothioate backbone; sugars and methylation of C are not fully specified. A value given as a limit tells only on which side of the number the result lay.
Note: test concentration or dose not given here.

One data set concerns the target PYGL. The conditions noted are these: ASO.
In turn, ACAGTTCAAGAGCTGTCGCT returned a remaining target (mRNA or protein) (fraction of control) of 0.39. The same measure, in the same setting: with ACGGGCCAGCGCTCCAGGGC the figure was 0.47; with AGGATGGGTTGATCTTCACT, 0.39. On the same count and under the same terms, with AGTATTCTTTTGCCTCGTAC the figure was 0.21; with ATCACCCAGGAAGCTGTGGA, 0.31. Still for that read-out and setting: with ATCAGAGACATCCTTCTCAG the figure was 0.33. On to ATCTGTGGCTGGAATGACTT, for which the remaining target (mRNA or protein) (fraction of control) is 0.79.

Consider ATGCTCATGCCAAAGATGAA, for which the remaining target (mRNA or protein) (fraction of control) was found to be 0.98.

For ATGCTTCTGATTTATCTCAT, the remaining target (mRNA or protein) (fraction of control) was 0.49. The same measure, in the same setting: with ATTGTCATTGGGATAGAGGA the figure was 0.49; with ATTTTGCAGACCGAGGTTGA, 0.31. Same read-out and setting: with CACAGCATGGGAACCGACAA the figure was 0.15. On the same count and under the same terms, with CAGCGGTTCGCCCATGGCTG the figure was 0.98; with CAGCTTTACCACCAATGATA, 0.29; with CCACATTGGCCCCATCCATG, 0.19. On to CCCATGTAAAATTCCAGAGA, for which the remaining target (mRNA or protein) (fraction of control) worked out at 0.44.

On to CCCCATTCCCAGAGATACTC, for which the remaining target (mRNA or protein) (fraction of control) was found to be 0.32. CCGCCCCGCCGCGCCAGGAG had a remaining target (mRNA or protein) (fraction of control) not below 1. Same read-out and setting: with CGGGCTGCGCAGAGAGCTGG the figure was 0.87; with CTCTTCTATATCCAATCCAA, 0.63. In turn, CTGCAAGTCCTGGGTTGCAG yielded a remaining target (mRNA or protein) (fraction of control) of 0.49. Still for that read-out and setting: with CTTGACCAGCGTGAAGTGCA the figure was 0.48. As to GAAGTCCTTGAATACTTTAG, the remaining target (mRNA or protein) (fraction of control) came to 0.4. On the same count and under the same terms, with GCAGGCAGCAAGTCTCCCAA the figure was 0.29; with GCCGTATCCATAGGCTGCAA, not below 1; with GCGCGAAGTAGTAGTCGCGG, 0.8. The sequence GGGCGGGACTTCTCCCAAGG had a remaining target (mRNA or protein) (fraction of control) of 0.79. The sequence GGTGTTGACAGTGTTATTCA displayed a remaining target (mRNA or protein) (fraction of control) of 0.56. On the same count and under the same terms, with TACCTGCCATCCATCTCGGA the figure was 0.15; with TCATATTGCCTGTCCCCGAG, 0.18. Same read-out and setting: with TCATGATAAAATAGCATGTT the figure was not below 1. The same measure, in the same setting: with TCCAACATTAAAGTCTCTGA the figure was 0.62; with TCCAGCGCCCCACCAGGTGG, 0.44; with TCCCGGTGTTGGTGTGTTCT, 0.63. Sequence TCTGTCAGCGGTTCGCCCAT had a remaining target (mRNA or protein) (fraction of control) of 0.69. Still for that read-out and setting: with TGCCACGTTCTCCACGCCCA the figure was 0.18; with TGGAGCCAAACTTGGAGGCT, 0.32; with TTCCAACCATAGGGTCATTG, 0.27. With TTCTGGTTGAGCTCCCATGC, the remaining target (mRNA or protein) (fraction of control) is 0.52. Same read-out and setting: with TTGTCAATTTGATCAATGAC the figure was 0.62.

Another data set has as its target GNAI2. The note with it: ASO.
As for AAAGAGAGGAAAGAGGAG, the remaining target (mRNA or protein) (fraction of control) was found to be 0.99. AACATTTGGACTTGGCTG returned a remaining target (mRNA or protein) (fraction of control) of 0.76. For ACACAGACAAGACAATGT, the remaining target (mRNA or protein) (fraction of control) was not below 1. On the same count and under the same terms, with ACATCTTGAAGTGTAGGT the figure was 0.78. ACCAGCATCTCAGACAAG displayed a remaining target (mRNA or protein) (fraction of control) not below 1.

Regarding AGACAAGGGCAGGCTTCA, the remaining target (mRNA or protein) (fraction of control) was found to be 0.37. On the same count and under the same terms, with AGCCCATCCCGCCGTCCG the figure was 0.91; with AGCTGCCTGGCGTCGTCC, 0.34; with AGCTGGTATTCCCTTGAG, 0.55. Same read-out and setting: with AGGAAGAGGATGATGGAC the figure was not below 1. The same measure, in the same setting: with AGGCTCCCTGTAAACATT the figure was 0.77; with AGGTCGTTCAGGTAGTAG, 0.64. In turn, AGTCCTTCAGGTTGTTCT gave a remaining target (mRNA or protein) (fraction of control) of 0.54. Same read-out and setting: with ATGGTGCTCTTCCCTGAC the figure was 0.52.

Sequence CAACAGCAGCAACTTCAC showed a remaining target (mRNA or protein) (fraction of control) of 0.89. Still for that read-out and setting: with CCCCTCCCTCATACACAG the figure was 0.62; with CCCGCCCGACCCACCCGA, 0.62.

CCCTCCAGACGCAGCCTT gave a remaining target (mRNA or protein) (fraction of control) of 0.47. Still for that read-out and setting: with CCTCAAACTTACTCTGGA the figure was 0.85.
